Active and inactive are the calls of the source. The rule behind the calls is not given here.
Biological target: Bcl-2-like protein 1 (Homo sapiens) (UniProt Q07817)
Assay: Bim-Bcl-XL interaction inhibitors, potency, dose response, biochemical, multiplexed, bead flow cytometry, human Bcl-XL (AID 1322); for inhibition: test concentration not given here
Conditions: Bead-based flow cytometry, Bim peptide-Bcl-XL binding, MCF

Bcl-2-like protein 1 (Homo sapiens), sequence (Q07817 whole entry, looked up): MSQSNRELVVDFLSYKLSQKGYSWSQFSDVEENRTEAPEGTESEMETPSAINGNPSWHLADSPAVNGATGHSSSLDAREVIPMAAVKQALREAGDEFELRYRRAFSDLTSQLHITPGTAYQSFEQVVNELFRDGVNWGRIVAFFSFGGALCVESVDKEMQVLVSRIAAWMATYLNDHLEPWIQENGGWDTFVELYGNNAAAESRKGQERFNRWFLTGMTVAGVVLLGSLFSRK

outcome, inactive:
O=C1Nc2ccc([N+](=O)[O-])cc2OC1CCN1CCN(Cc2ccc3c(c2)OCO3)CC1 (stereo unspecified), Cc1ccc(C)c(NC(=O)C(=O)NCc2ccccn2)c1, O=C(CNC(=O)c1ccc(S(=O)(=O)N2CCCC2)cc1)N/N=C/c1ccc(Cl)cc1Cl, Cc1ccc(NC(=S)N2CCn3cccc3C2c2cccnc2)cc1 (stereo unspecified), O=C(C[n+]1ccc(-c2nnc3n2CCC3)cc1)c1ccc(Cl)cc1, O=C(O)CC1S/C(=N/N=C/C=C/c2ccccc2[N+](=O)[O-])NC1=O (stereo unspecified), O=C(O)c1cccc(NC2=C(Cl)C(=O)c3ccccc3C2=O)c1, O=C(C1=NN[C@@H]2C(=O)N(c3cccc(F)c3)C(=O)[C@H]12)c1ccc2ccccc2n1, CC(C)C(=O)NC(c1ccccc1)c1cc([N+](=O)[O-])c2cccnc2c1O (stereo unspecified), Clc1nssc1=Nc1ccc(Br)cc1, Cc1ccccc1-n1c(SCc2cccc(F)c2)nc2[nH]ncc2c1=O, CC(C)CCN1CCN(Cc2cccc3cccnc23)CC1CCO (stereo unspecified), O=C(N/N=C/c1cccc([N+](=O)[O-])c1)c1cccs1, O=C(NNC(=O)C12CC3CC(CC(C3)C1)C2)c1ccco1, CC1CC2=C(NC(=S)NC2c2cccc(F)c2)/C(=C/c2cccc(F)c2)C1 (stereo unspecified), Cc1nn(-c2ccc(Cl)c(Cl)c2)c(C)c1C(=O)O, Fc1cccc(Nc2nc(-c3ccncc3)nc3ccccc23)c1, CN(CCc1ccccn1)C(=O)CCC1CCCN(C(=O)NC2CCCCC2)C1 (stereo unspecified), CN(Cc1cccs1)C(=O)CCc1c[nH]c2ccccc12, Cc1ccc(C(=O)NNC(=O)c2ccc3ncccc3c2)cc1

Same assay, conditions: Bead-based flow cytometry, Bim peptide-Bcl-XL binding, MCF

inhibition, inactive:
CC1(C)CC(=O)C(C=NCCN2CCN(CCc3ccccc3)CC2)=C(O)C1, Cn1c(N)c(C(=O)COC(=O)c2cc(-c3ccco3)nc3ccccc23)c(=O)n(C)c1=O, CCOc1cc(/C=N/NC(=O)c2cccs2)cc([N+](=O)[O-])c1O, Cc1[nH]nc(SCC(=O)NCc2ccc(F)cc2)c1[N+](=O)[O-], CC(C)n1nnnc1SCC(=O)N1CCN(C(=O)c2ccco2)CC1, CCNC(=S)Nc1ccc(OCC)cc1, CC(C)C(=O)N1CCN(c2ccc([N+](=O)[O-])cc2Cl)CC1, COc1ccc(C(=S)N2CCCCCC2)cc1, Cc1ccc(/C=N/NC(=O)CSc2nnc(-c3ccc(Cl)cc3)n2-c2ccccc2)o1, C#CCOCCOCCOCCNc1nc(N2CCN(C(=O)[C@H](CCCCN)n3cc(CCCC)nn3)CC2)nc(N2CCN(C(=O)[C@H](Cc3ccc(O)cc3)n3cc(CCO)nn3)CC2)n1, Cc1ccc(Nc2nc(CSc3nnc(-c4cccnc4)n3-c3ccccc3C)cs2)cc1, CCC(=O)OCCNc1cc(Sc2nc3ccccc3s2)c2nonc2c1[N+](=O)[O-], C/C(=N\NC(=O)Cn1nc(C)c([N+](=O)[O-])c1C)c1ccc(O)cc1, Cc1cc(-c2csc(N)n2)c(C)n1C, O=C(Nc1ccccn1)c1cc2ccccc2o1, CCOC(=O)c1[nH]cnc1C(=O)NC(C)C, Cc1ccc(NC(=O)CC2S/C(=N/N=C/c3c[nH]c4ccccc34)NC2=O)cc1 (stereo unspecified), O=C(Nc1ccncc1)c1cc2ccccc2o1, O=C(COc1ccccc1)Nc1ccc2c(c1)Cc1cc(NC(=O)COc3ccccc3)ccc1-2, CC1(C)Cc2c(ccc3ccccc23)/C(=C/C(=O)N2CCCCC2)N1, c1csc(C2=Nn3c(nnc3-c3ccncc3)SC2)c1, c1ccc(Nc2nc(-c3ccncc3)cs2)cc1, CNc1ccc(Br)cc(C(=O)/C=C/c2cc(OC)ccc2OC)c1=O, CN(C)[C@@H]1C(=O)C(C(=O)NCN2CCCC2)=C(O)[C@@]2(O)C(=O)C3=C(O)c4c(O)cccc4[C@@](C)(O)C3CC12 (stereo partly specified), OC(COc1ccc2ccccc2c1)CN1CCCC1 (stereo unspecified), CCCC1(C(=O)OCC)NC(c2cc(OC)c(OC)c(OC)c2)C2C(=O)N(CC)C(=O)C21 (stereo unspecified), CCCCOC(=O)c1nc(Cl)c(Cl)c(N)c1Cl, O=c1[nH]c(SCc2nc3ccccc3c(=O)n2-c2ccccc2C(F)(F)F)nc2ccccc12, Cc1cc(N2CCN(C)CC2)nc2ccc(NC(=S)N3CCCCC3)cc12, Cc1ccc2cc(C)c(Sc3nnnn3-c3ccccc3)nc2c1, CNc1ccc(Br)cc(C(=O)/C=C/c2ccc(OC)cc2OC)c1=O, C#CCOCCOCCOCCNc1nc(N2CCN(C(=O)[C@H]([C@@H](C)CC)n3cc([C@@H](N)CC(C)C)nn3)CC2)nc(N2CCN(C(=O)[C@H](Cc3cc4ccccc4[nH]3)n3cc([C@@H](N)Cc4ccc(O)cc4)nn3)CC2)n1, CCOC(=O)C1=C(Cc2ccc(OC)cc2)C(=O)c2ccccc2C1=O, CCOc1c(Cl)cc(CNc2ccc(N3CCCC3)cc2)cc1OC, CCOc1ccccc1NC(=O)CSc1nnc2ccc(-c3cccnc3)nn12, CCn1c(C)c(/C=N/Nc2nc3ccccc3s2)c2ccccc21, CN(C)/C=C/C(=O)c1ccc(C(F)(F)F)cc1F, Fc1ccccc1/C=C1\CCCC2=C1NC(=S)NC2c1ccccc1F (stereo unspecified), O=C(Nc1nnc(COc2ccc(Cl)cc2)s1)c1ccco1, CCOC(=O)c1cc2c(=O)n3cccc(C)c3nc2n(Cc2ccco2)c1=NC(=O)c1ccccc1, CCOC(=O)C1(CC/C(C)=N\NC(N)=O)CC(C)(C)OC1=O (stereo unspecified), Cc1c(NC2=C(Cl)C(=O)N(c3ccccc3Cl)C2=O)c(=O)n(-c2ccccc2)n1C, Cc1cccc(C(=O)N2CCC(c3nc(-c4ccc(S(=O)(=O)N5CCOCC5)cc4)no3)CC2)c1, CCN(C(=O)COC(=O)c1cc(-c2ccc(C)o2)nc2ccccc12)C1CCS(=O)(=O)C1 (stereo unspecified), O=C(/C=C/c1c(F)cccc1Cl)Nc1ccncc1, CCc1cccc(CC)c1-n1c(-c2cccnc2)n[nH]c1=S, Fc1ccc(Cn2nnnc2C(c2ccc(Cl)cc2)N2CCSCC2)cc1 (stereo unspecified), O=C(/C=C/c1ccc(-c2ccccc2[N+](=O)[O-])o1)c1ccccc1, O=[N+]([O-])c1ccc(-c2cn(-c3ccc(Cl)cc3)c(=S)[nH]2)cc1, N#Cc1ccc(N=c2ssnc2Cl)cc1, CC1=C2C(CCS2(=O)=O)CC2(C1)C(=O)OC(C)(C)OC2=O (stereo unspecified), Cc1cc(-c2csc(N)n2)c(C)n1CCc1ccccc1, COc1ccc(-c2nnc(SCC(=O)Nc3nc4ccccc4s3)n2C)cc1, CC1=NN(c2ccc(C)cc2)C(=O)/C1=C\c1ccc(Br)s1, C=CCn1c(C)cc(-c2csc(NC)n2)c1C, CCOC(=O)/C(=C\c1cccc(O)c1)c1nc2sc(C)c(C)c2c(=O)[nH]1, CCOC(=O)CSc1nnc(-c2cccc(Cl)c2)n1CC, CNC(=S)N(Cc1cccs1)Cc1cc2ccc(OC)cc2[nH]c1=O, CC(/C=C/C(=O)c1ccc(C)cc1)=C\c1ccccc1, Cc1ccc(-c2cc(C(=O)Nc3ccccc3C)c3ccccc3n2)o1, CCOC(=O)c1c(NC(C)=O)sc2c(O)c(Br)cc(Br)c12, COC(=O)Cc1cc(=O)[nH]c(Nc2nc3ccccc3o2)n1, O=C1CSc2ccc(C(=O)Nc3cccc(S(=O)(=O)Nc4ccc(Br)cc4)c3)cc2N1, CCOC(=O)c1c(NC(=O)c2ccccc2N(C)S(=O)(=O)c2ccccc2)sc2c1CCCC2, COc1ccc(CN(C)CC(=O)NC(C)c2ccccc2)c(OC)c1 (stereo unspecified), COc1cc(/C=C2\S/C(=N/S(=O)(=O)c3ccccc3)NC2=O)c([N+](=O)[O-])cc1OC, Cc1ccc(OCC(=O)NCc2ccccn2)c(Br)c1, Cc1sc(NC(=O)Cn2cnnn2)nc1-c1ccc(Cl)cc1, O=C(Nc1nnc(C2CC2)s1)C1Cc2ccccc2CN1S(=O)(=O)c1ccccc1F (stereo unspecified), Cc1ccc(-c2cc(C(=O)Nc3ccccn3)c3ccccc3n2)o1, CCc1ccc(NC(=O)CC2NCCNC2=O)cc1 (stereo unspecified), CNC(=O)c1sc(-c2ccccn2)nc1C, CCN(CC)c1ccc(NC(=O)COc2ccccc2C#N)cc1S(=O)(=O)Nc1ccccc1OC, Cc1ccc(/C=C2/NC(=O)N(Cc3ccc(Br)cc3)C2=O)o1, COc1ccc(NC(=O)C2=C(C)NC(=O)NC2c2cccc(OC)c2OC)c(OC)c1 (stereo unspecified), Cn1c(=O)c(C(=O)COC(=O)c2cc(-c3ccco3)nc3ccccc23)c(N)n(Cc2ccccc2)c1=O, COc1cc(NC(=S)NCCCO)c(OC)cc1Cl, Cc1cc(C)cc(-n2c(C)nc3cc(C(=O)O)ccc32)c1, CC(C)=C1C(=O)NN(c2ccc(C)c(Cl)c2)C1=O, COc1cc(CNc2ccc3[nH]c(=O)[nH]c3c2)cc(Br)c1OCC(=O)NC(C)(C)C, COc1ccc(-n2c(NC(=O)c3ccco3)c(C#N)c3nc4ccccc4nc32)cc1

Source: PubChem BioAssay AID1322 (NMMLSC, 2008)
